# Results from ChEMBL document CHEMBL1129941, “AMPA receptor agonists: synthesis, protolytic properties, and pharmacology of 3-isothiazolol bioisosteres of glutamic acid” (J Med Chem, 1997).
# Experiments:
# Rattus norvegicus = species on record: Rattus norvegicus; test: tissue or blood
# Description: Effective concentration evaluated in electrophysiological rat cortical slice model
# [1] = target: Glutamate receptor ionotropic, AMPA (Rattus norvegicus, UniProt P19490+P19491+P19492+P19493)
# Description: In vitro binding affinity for Ionotropic glutamate receptor AMPA site was determined using [3H]AMPA as radioligand in rat cortex
# Mus musculus = test: In vivo convulsant potency after subcutaneous administration in mice; format: functional; conditions: sc
Compound,EC50 (Rattus norvegicus) [µM],IC50 [1] [µM],ED50 (Mus musculus) [µmol/kg]
CC(C)(C)c1onc(O)c1CC(N)C(=O)O (configuration not stated),34,,
CC(C)(C)c1snc(O)c1CC(N)C(=O)O (configuration not stated),14,0.63,

# Now from value to compound, other results behind:
EC50 (Rattus norvegicus) [µM],IC50 [1] [µM],Compound,ED50 (Mus musculus) [µmol/kg]
15,1.8,Cc1snc(O)c1CC(N)C(=O)O (configuration not stated),130
500,17,NC(Cc1snc(O)c1Br)C(=O)O (configuration not stated),
370,5.8,NC(Cc1cc(O)ns1)C(=O)O (configuration not stated),
370,1.5,NC(Cc1cc(O)no1)C(=O)O (configuration not stated),
